Tested on: V-79 cells
Experiment: PCI cell killing by bleomycin, cell survival by MTT assay
Type: cell-based, Chinese hamster
Details: light before
Description: The Chinese hamster lung fibroblast cell line V-79 was used in this study.
The cells (75 000 cells/well, 1 ml/well) were seeded into 12-well plates (Costar Corning, N.Y., USA) and allowed to attach for 6 h. To some of the wells 1 ml medium with 0.7 μg/ml TPPS2a was added (see Table 1), and the cells were incubated for 18 h (5% v/v CO2, 37° C.) The cells were washed three times with medium. The cells were then incubated in serum-containing medium for 4 h. The medium was removed, new medium was added and the cells were illuminated by exposure to light from a box containing a bank of four fluorescent tubes (Osram 18W/67) with the highest fluence around 420 nm.
Different doses of bleomycin were immediately added. After 1 or 4 h incubation with bleomycin the cells were washed once with RPMI-medium, 1 ml of medium was added and after 3 days of incubation cell survival was measured by the MTT assay. This method is based on reduction of a water-soluble tetrazolium salt (MTT) to a purple, insoluble formazan product by mitochondrial dehydrogenases present in living, metabolically active cells. […] The solution is transferred to a 96 wells plate which is read by a Multiskan EX microplate reader (Labsystems, Finland) with a 570 nm bandpass filter. Cell survival is calculated as percent of control cells not receiving light treatment.

With bleomycin the “light-induced effect on cytotoxicity (cell survival, MTT)” value (100 μM bleomycin, 1 or 4 h, with 0.7 μg/ml TPPS2a) was “substantial light-induced increase in the cytotoxicity” and the “light-induced effect on cell survival (MTT)” value (lowest dose of bleomycin (5 μM, 1 h), with TPPS2a) was “lack of effect”.
